Data: patent US12655116B2, “Substituted isophthalic acid diamides” (Bayer Aktiengesellschaft, priority 2020, dated 2026)

Assays:
[1] = test system: ALOMY; experiment: Pre-emergence herbicidal action against ALOMY; format: in vivo, Alopecurus myosuroides; settings: Alopecurus myosuroides, 504 h, pre-emergence; for pest or weed control at 320 g/ha: scored visually after 3 weeks, 100% = plants have died, 0% = like control plants
Procedure, shortened: (§1)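 Herbicidal effect was assessed 3 weeks after treatment by visual comparison with untreated controls, 100% denoting dead plants. Aqueous WP or EC preparations had been applied at 600 to 800 l/ha with 0.2% wetting agent to the soil covering freshly sown seeds.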

[2] = test system: ECHCG; experiment: Post-emergence herbicidal action against ECHCG; format: in vivo, Echinochloa crus-galli; settings: Echinochloa crus-galli, 504 h; for pest or weed control at 80 g/ha: dosage 80 g/ha
Procedure, shortened: (§2)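 Herbicidal effect was scored visually in percent after about 3 weeks in the greenhouse. Plants had been raised in sandy loam and treated post-emergence at the one-leaf stage with formulated compound at 600 to 800 l/ha water plus 0.2% wetting agent.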

[3] = test system: VIOTR; experiment: Pre-emergence herbicidal action against VIOTR; format: in vivo, Viola tricolor; settings: Viola tricolor, 504 h; for pest or weed control at 80 g/ha: dosage 80 g/ha; for pest or weed control at 320 g/ha: dosage 320 g/ha
Procedure, shortened: as §1

[4] = test system: HORMU; experiment: Post-emergence herbicidal action against HORMU; format: in vivo, Hordeum murinum; settings: Hordeum murinum, 504 h; for pest or weed control at 80 g/ha: dosage 80 g/ha
Procedure, shortened: as §2

[5] = test system: AMARE; experiment: Pre-emergence herbicidal action against AMARE; format: in vivo, Amaranthus retroflexus; settings: Amaranthus retroflexus, 504 h, 100% = plants have died, 0% = like control plants; for pest or weed control at 320 g/ha: scored visually after 3 weeks
Procedure, shortened: as §1

[6] = test system: ABUTH; experiment: Post-emergence herbicidal action against ABUTH; format: in vivo, Abutilon theophrasti; settings: Abutilon theophrasti, 504 h, visual assessment about 3 weeks after treatment vs untreated controls; for pest or weed control at 20 g/ha: dosage 20 g/ha; for pest or weed control at 80 g/ha: dosage 80 g/ha
Procedure, shortened: as §2

[7] = test system: VERPE; experiment: Post-emergence herbicidal action against VERPE; format: in vivo, Veronica persica; settings: Veronica persica, 504 h
Procedure, shortened: as §2

[8] = test system: ALOMY; experiment: Post-emergence herbicidal action against ALOMY; format: in vivo, Alopecurus myosuroides; settings: Alopecurus myosuroides, 504 h, visual assessment about 3 weeks after treatment vs untreated controls; for pest or weed control at 20 g/ha: dosage 20 g/ha; for pest or weed control at 80 g/ha: dosage 80 g/ha
Procedure, shortened: as §2

[9] = test system: POLCO; experiment: Post-emergence herbicidal action against POLCO; format: in vivo, Polygonum convolvulus; settings: Fallopia convolvulus, 504 h, dosage 80 g/ha
Procedure, shortened: as §2

[10] = test system: LOLRI; experiment: Post-emergence herbicidal action against LOLRI; format: in vivo, Lolium rigidum; settings: Lolium rigidum, 504 h; for pest or weed control at 80 g/ha: dosage 80 g/ha
Procedure, shortened: as §2

[11] = test system: VIOTR; experiment: Post-emergence herbicidal action against VIOTR; format: in vivo, Viola tricolor; settings: Viola tricolor, 504 h
Procedure, shortened: as §2

[12] = test system: POLCO; experiment: Pre-emergence herbicidal action against POLCO; format: in vivo, Polygonum convolvulus; settings: Fallopia convolvulus, 504 h; for pest or weed control at 320 g/ha: dosage 320 g/ha
Procedure, shortened: as §1

[13] = test system: SETVI; experiment: Post-emergence herbicidal action against SETVI; format: in vivo, Setaria viridis; settings: Setaria viridis, 504 h; for pest or weed control at 20 g/ha: dosage 20 g/ha; for pest or weed control at 80 g/ha: dosage 80 g/ha
Procedure, shortened: as §2

[14] = test system: AMARE; experiment: Post-emergence herbicidal action against AMARE; format: in vivo, Amaranthus retroflexus; settings: Amaranthus retroflexus, 504 h, visual assessment about 3 weeks after treatment, 100% = plants have died, 0% = like control plants
Procedure, shortened: as §2

[15] = test system: SETVI; experiment: Pre-emergence herbicidal action against SETVI; format: in vivo, Setaria viridis; settings: Setaria viridis, 504 h; for pest or weed control at 80 g/ha: dosage 80 g/ha; for pest or weed control at 320 g/ha: dosage 320 g/ha
Procedure, shortened: as §1

[16] = test system: HORMU; experiment: Pre-emergence herbicidal action against HORMU; format: in vivo, Hordeum murinum; settings: Hordeum murinum, 504 h, pre-emergence
Procedure, shortened: as §1

[17] = test system: ECHCG; experiment: Pre-emergence herbicidal action against ECHCG; format: in vivo, Echinochloa crus-galli; settings: Echinochloa crus-galli, 504 h
Procedure, shortened: as §1

[18] = test system: LOLRI; experiment: Pre-emergence herbicidal action against LOLRI; format: in vivo, Lolium rigidum; settings: Lolium rigidum, 504 h, 320 g/ha
Procedure, shortened: as §1

[19] = test system: VERPE; experiment: Pre-emergence herbicidal action against VERPE; format: in vivo, Veronica persica; settings: Veronica persica, 504 h; for pest or weed control at 320 g/ha: dosage 320 g/ha
Procedure, shortened: as §1

[20] = test system: AVEFA; experiment: Pre-emergence herbicidal action against AVEFA; format: in vivo, Avena fatua; settings: Avena fatua, 504 h, pre-emergence; for pest or weed control at 320 g/ha: scored visually after 3 weeks, 100% = plants have died, 0% = like control plants
Procedure, shortened: as §1

[21] = test system: ABUTH; experiment: Pre-emergence herbicidal action against ABUTH; format: in vivo, Abutilon theophrasti; settings: Abutilon theophrasti, 504 h; for pest or weed control at 80 g/ha: scored visually after 3 weeks vs untreated controls (100% = plants have died, 0% = like control plants); for pest or weed control at 320 g/ha: Dosage: 320 g/ha, scored visually after 3 weeks
Procedure, shortened: as §1

[22] = test system: STEME; experiment: Pre-emergence herbicidal action against STEME; format: in vivo, Stellaria media; settings: Stellaria media, 504 h; for pest or weed control at 80 g/ha: dosage 80 g/ha; for pest or weed control at 320 g/ha: dosage 320 g/ha
Procedure, shortened: as §1

[23] = scored visually after 3 weeks vs untreated controls
[24] = 100% = plants have died, 0% = like control plants

Work on CCCn1nnnc1NC(=O)c1ccc(C(F)(F)F)c(C(=O)NC)c1Cl [Example 3-129] yielded a pest or weed control at 80 g/ha ([1]; 80 g/ha, scored visually after 3 weeks vs untreated controls (100% = plants have died, 0% = like control plants)) of 80%, a pest or weed control at 320 g/ha [1] of 100% and a pest or weed control at 80 g/ha [2] of 100%. For the same compound, the pest or weed control at 20 g/ha ([3]; dosage 20 g/ha) was 100%, the pest or weed control at 80 g/ha [3] was 100% and the pest or weed control at 320 g/ha [3] was 100%. For the same compound, the pest or weed control at 20 g/ha ([4]; dosage 20 g/ha) was 90%, the pest or weed control at 80 g/ha [4] was 100% and the pest or weed control at 20 g/ha ([5]; 20 g/ha, scored visually after 3 weeks vs untreated controls) was 100%. For the same compound, the pest or weed control at 80 g/ha [5, 23] was 100%, the pest or weed control at 320 g/ha [5] was 100% and the pest or weed control at 5 g/ha ([6]; dosage 5 g/ha) was 100%. For the same compound, the pest or weed control at 20 g/ha [6] was 100%, the pest or weed control at 80 g/ha [6] was 100% and the pest or weed control at 80 g/ha [7] was 80%. For the same compound, the pest or weed control at 20 g/ha [8] was 80%, the pest or weed control at 80 g/ha [8] was 100% and the pest or weed control at 80 g/ha [9] was 90%. It also gave a pest or weed control at 80 g/ha [10] of 80%, a pest or weed control at 5 g/ha ([11]; 5 g/ha) of 80% and a pest or weed control at 20 g/ha ([11]; 20 g/ha) of 90%. It also gave a pest or weed control at 80 g/ha [11] of 100%, a pest or weed control at 80 g/ha ([12]; dosage 80 g/ha) of 80% and a pest or weed control at 320 g/ha [12] of 100%. For the same compound, the pest or weed control at 20 g/ha [13] was 100%, the pest or weed control at 80 g/ha [13] was 100% and the pest or weed control at 20 g/ha [14] was 100%. For the same compound, the pest or weed control at 80 g/ha [14] was 100%, the pest or weed control at 80 g/ha [15] was 90% and the pest or weed control at 320 g/ha [15] was 100%. The pest or weed control at 80 g/ha [16] was 90%, the pest or weed control at 320 g/ha [16] was 100% and the pest or weed control at 80 g/ha [17] was 80%. It also gave a pest or weed control at 320 g/ha [17] of 100%, a pest or weed control at 320 g/ha [18] of 100% and a pest or weed control at 320 g/ha [19] of 100%. For the same compound, the pest or weed control at 80 g/ha [20] was 100%, the pest or weed control at 320 g/ha [20] was 100% and the pest or weed control at 80 g/ha [21] was 100%. For the same compound, the pest or weed control at 320 g/ha [21, 24] was 100%, the pest or weed control at 20 g/ha ([21]; dosage 20 g/ha, scored visually after 3 weeks vs untreated controls, 100% = plants have died, 0% = like control plants, read-out: Pre-emergence action against ABUTH (herbicidal activity in percent)) was 100% and the pest or weed control at 20 g/ha ([22]; dosage 20 g/ha) was 90%. It also gave a pest or weed control at 80 g/ha [22] of 100% and a pest or weed control at 320 g/ha [22] of 100%.

For CCn1nnnc1NC(=O)c1ccc(C(F)(F)F)c(C(=O)NC)c1SC [Example 2-81], the pest or weed control at 320 g/ha [1] was 90%, the pest or weed control at 20 g/ha ([2]; dosage 20 g/ha) was 90% and the pest or weed control at 80 g/ha [2] was 90%. The pest or weed control at 80 g/ha [3] was 90%, the pest or weed control at 320 g/ha [3] was 100% and the pest or weed control at 80 g/ha [4] was 80%. The pest or weed control at 80 g/ha [5, 23] was 100%, the pest or weed control at 320 g/ha [5] was 100% and the pest or weed control at 20 g/ha [6] was 90%. It also gave a pest or weed control at 80 g/ha [6] of 90%, a pest or weed control at 20 g/ha ([7]; 20 g/ha) of 80% and a pest or weed control at 80 g/ha [7] of 90%. The pest or weed control at 20 g/ha [8] was 80%, the pest or weed control at 80 g/ha [8] was 90% and the pest or weed control at 80 g/ha [9] was 80%. It also gave a pest or weed control at 20 g/ha ([10]; dosage 20 g/ha) of 80%, a pest or weed control at 80 g/ha [10] of 90% and a pest or weed control at 80 g/ha [11] of 90%. For the same compound, the pest or weed control at 320 g/ha [12] was 100%, the pest or weed control at 20 g/ha [13] was 90% and the pest or weed control at 80 g/ha [13] was 90%. It also gave a pest or weed control at 20 g/ha [14] of 90%, a pest or weed control at 80 g/ha [14] of 90% and a pest or weed control at 80 g/ha [15] of 100%. The pest or weed control at 320 g/ha [15] was 100%, the pest or weed control at 80 g/ha [16] was 90% and the pest or weed control at 320 g/ha [16] was 100%. It also gave a pest or weed control at 80 g/ha [17] of 100%, a pest or weed control at 320 g/ha [17] of 100% and a pest or weed control at 320 g/ha [18] of 90%. It also gave a pest or weed control at 80 g/ha ([19]; dosage 80 g/ha) of 90%, a pest or weed control at 320 g/ha [19] of 90% and a pest or weed control at 80 g/ha [20] of 80%. The pest or weed control at 320 g/ha [20] was 100%, the pest or weed control at 80 g/ha [21] was 100% and the pest or weed control at 320 g/ha [21, 24] was 100%. For the same compound, the pest or weed control at 80 g/ha [22] was 90% and the pest or weed control at 320 g/ha [22] was 100%.
